Laboratory results taken from ChEMBL document CHEMBL1201862, “PubChem BioAssay data set” (2004).
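Cultured in 96-well plates, cells were exposed to test compound for 48 hours across five concentrations. At the GI50, growth is halved.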 The source made the active and inactive calls. Rule as the data show it: active = GI50 up to about 1.1 µM and inactive = higher.

Key:
Assay in all cases: inhibition of tumour cell growth, NCI panel, 48 h
[1] = system: 786-0
[2] = system: A549
[3] = system: BT-549
[4] = system: HCT-116
[5] = system: HOP-92
[6] = system: K562
[7] = system: M14
[8] = system: MDA-MB-435
[9] = system: MDA-N
[10] = system: Malme-3M
[11] = system: NCI-H460
[12] = system: NCI-H522
[13] = system: OVCAR-3
[14] = system: PC-3
[15] = system: SN12C
[16] = system: SNB-75
[17] = system: SW-620
[18] = system: U-251
[19] = system: RXF 393

| SMILES | GI50 [1] | GI50 [2] | GI50 [3] | GI50 [4] | GI50 [5] | GI50 [6] | GI50 [7] | GI50 [8] | GI50 [9] | GI50 [10] | GI50 [11] | GI50 [12] | GI50 [13] | GI50 [14] | GI50 [15] | GI50 [16] | GI50 [17] | GI50 [18] | GI50 [19] |
| --- | --- | --- | --- | --- | --- | --- | --- | --- | --- | --- | --- | --- | --- | --- | --- | --- | --- | --- | --- |
| C=CCOc1cc(NC(=S)c2ccoc2C)ccc1OC | > 100 µM (inactive) | > 100 µM (inactive) | > 100 µM (inactive) | > 100 µM (inactive) | 27.9 µM (inactive) | > 100 µM (inactive) | > 100 µM (inactive) | > 100 µM (inactive) | > 100 µM (inactive) | > 100 µM (inactive) | > 100 µM (inactive) | > 100 µM (inactive) | > 100 µM (inactive) | > 100 µM (inactive) | > 100 µM (inactive) | 24.1 µM (inactive) | > 100 µM (inactive) | 58.9 µM (inactive) |  |
| COc1cc(/C=C2\CCC/C(=C\c3cc(OC)c(O)c(OC)c3)C2=O)cc(OC)c1O | 1.7 µM (inactive) | 1.67 µM (inactive) | 1.53 µM (inactive) | 1.32 µM (inactive) |  | 4.81 µM (inactive) | 1.88 µM (inactive) | 1.84 µM (inactive) | 1.79 µM (inactive) | 1.51 µM (inactive) | 2.22 µM (inactive) | 1.53 µM (inactive) | 1.07 µM (active) | 3.35 µM (inactive) | 2.32 µM (inactive) | 9.86 µM (inactive) | 3.37 µM (inactive) | 1.36 µM (inactive) | 1.43 µM (inactive) |
| Cc1nc2c(sc3nc4ccccc4n32)c(=O)[nH]1 | > 100 µM (inactive) | > 100 µM (inactive) | > 100 µM (inactive) | > 100 µM (inactive) | > 100 µM (inactive) |  | > 100 µM (inactive) | > 100 µM (inactive) | > 100 µM (inactive) | > 100 µM (inactive) |  | > 100 µM (inactive) | > 100 µM (inactive) | > 100 µM (inactive) |  | > 100 µM (inactive) | > 100 µM (inactive) | > 100 µM (inactive) | > 100 µM (inactive) |
| CC(=O)CCN1CC2CN=NC2(C#N)C1 (configuration not stated) | 36.6 µM (inactive) | > 100 µM (inactive) | > 100 µM (inactive) | 34 µM (inactive) | 22.3 µM (inactive) | 6.7 µM (inactive) |  | > 100 µM (inactive) | 75.7 µM (inactive) | 69.7 µM (inactive) | > 100 µM (inactive) | 1.79 µM (inactive) | > 100 µM (inactive) | > 100 µM (inactive) | > 100 µM (inactive) | > 100 µM (inactive) | 17 µM (inactive) | > 100 µM (inactive) | 94.4 µM (inactive) |
| Fc1cc2nc3n(c2cc1F)C(c1c(Cl)cccc1Cl)SC3 (configuration not stated) | 15 µM (inactive) | 14.9 µM (inactive) | 21.8 µM (inactive) | 12.6 µM (inactive) | 13.6 µM (inactive) |  | 15.7 µM (inactive) | 15.1 µM (inactive) | 15.7 µM (inactive) | 17.6 µM (inactive) | 13.7 µM (inactive) | 16.9 µM (inactive) | 13 µM (inactive) | 16.3 µM (inactive) | 16.3 µM (inactive) | 13.7 µM (inactive) | 18 µM (inactive) | 17.1 µM (inactive) | 14.9 µM (inactive) |
| N#CC1(C#N)C(C#N)(C#N)C1(C#N)C(N)=O | > 100 µM (inactive) | > 100 µM (inactive) | > 100 µM (inactive) | > 100 µM (inactive) | > 100 µM (inactive) | > 100 µM (inactive) | > 100 µM (inactive) | > 100 µM (inactive) | > 100 µM (inactive) | > 100 µM (inactive) | > 100 µM (inactive) | > 100 µM (inactive) |  | > 100 µM (inactive) | > 100 µM (inactive) |  | > 100 µM (inactive) | > 100 µM (inactive) | > 100 µM (inactive) |
| CC(=O)Nc1ccc(NC(=O)CC(=O)Nc2ccc(NC(C)=O)cc2)cc1 | > 100 µM (inactive) | > 100 µM (inactive) | > 100 µM (inactive) | > 100 µM (inactive) | > 100 µM (inactive) | > 100 µM (inactive) | > 100 µM (inactive) | > 100 µM (inactive) | > 100 µM (inactive) | > 100 µM (inactive) | > 100 µM (inactive) | > 100 µM (inactive) | > 100 µM (inactive) | > 100 µM (inactive) | > 100 µM (inactive) |  | > 100 µM (inactive) | 32.1 µM (inactive) |  |
| O=C(NC(CCCCN1C(=O)c2ccccc2C1=O)P(=O)(Oc1ccccc1)Oc1ccccc1)OCc1ccccc1 (configuration not stated) | > 100 µM (inactive) | > 100 µM (inactive) | > 100 µM (inactive) |  | > 100 µM (inactive) |  | > 100 µM (inactive) | > 100 µM (inactive) | > 100 µM (inactive) | > 100 µM (inactive) | > 100 µM (inactive) | 75 µM (inactive) | > 100 µM (inactive) | > 100 µM (inactive) | > 100 µM (inactive) | 0.01 µM (active) | > 100 µM (inactive) | > 100 µM (inactive) | > 100 µM (inactive) |
| N#CCCN(CCC#N)c1ccc(/C=C2\N=C(c3ccccc3)N(NC(=O)c3ccncc3)C2=O)cc1 | > 100 µM (inactive) | > 100 µM (inactive) | > 100 µM (inactive) | > 100 µM (inactive) | > 100 µM (inactive) | 49.2 µM (inactive) | > 100 µM (inactive) | 69.3 µM (inactive) | > 100 µM (inactive) |  | > 100 µM (inactive) |  | > 100 µM (inactive) | > 100 µM (inactive) | > 100 µM (inactive) |  | > 100 µM (inactive) | > 100 µM (inactive) | > 100 µM (inactive) |
| Nc1ncc(Sc2ccccc2C(=O)O)s1 | > 100 µM (inactive) | > 100 µM (inactive) | > 100 µM (inactive) | > 100 µM (inactive) | > 100 µM (inactive) | > 100 µM (inactive) | > 100 µM (inactive) | > 100 µM (inactive) | > 100 µM (inactive) |  | > 100 µM (inactive) |  | > 100 µM (inactive) | > 100 µM (inactive) | > 100 µM (inactive) | > 100 µM (inactive) | > 100 µM (inactive) | > 100 µM (inactive) | > 100 µM (inactive) |
| O=c1[nH]nc(Cc2ccc([N+](=O)[O-])cc2)[nH]1 | > 100 µM (inactive) | > 100 µM (inactive) | > 100 µM (inactive) | > 100 µM (inactive) |  | > 100 µM (inactive) | > 100 µM (inactive) | > 100 µM (inactive) | > 100 µM (inactive) | > 100 µM (inactive) | > 100 µM (inactive) | > 100 µM (inactive) | > 100 µM (inactive) | > 100 µM (inactive) | > 100 µM (inactive) | > 100 µM (inactive) | > 100 µM (inactive) | > 100 µM (inactive) | > 100 µM (inactive) |
| CCOC(=O)/C=C\c1c(Cl)n(-c2ccccc2)c(=O)n(-c2ccccc2)c1=O | 20.3 µM (inactive) | 25.1 µM (inactive) | 20.2 µM (inactive) | 23.8 µM (inactive) | 15.8 µM (inactive) |  | 18.7 µM (inactive) | 22.1 µM (inactive) | 17 µM (inactive) | 24.5 µM (inactive) | 18 µM (inactive) | 18.1 µM (inactive) | 19.3 µM (inactive) | 18.7 µM (inactive) | 19.6 µM (inactive) | 14.9 µM (inactive) | 23.8 µM (inactive) | 32 µM (inactive) | 17.9 µM (inactive) |
| COc1cc2c(cc1O)C1Cc3ccc(OC)c(O)c3C[N+]1(C)CC2 (configuration not stated) | > 100 µM (inactive) | > 100 µM (inactive) | > 100 µM (inactive) | > 100 µM (inactive) | > 100 µM (inactive) | 58.3 µM (inactive) | > 100 µM (inactive) | > 100 µM (inactive) | > 100 µM (inactive) | > 100 µM (inactive) | > 100 µM (inactive) |  |  | > 100 µM (inactive) | > 100 µM (inactive) | > 100 µM (inactive) | > 100 µM (inactive) | > 100 µM (inactive) | > 100 µM (inactive) |
| O=C1C(=CNc2ccccc2Cl)C(=O)N(c2ccccc2)C(=O)N1c1ccccc1 | > 100 µM (inactive) | > 100 µM (inactive) | > 100 µM (inactive) | > 100 µM (inactive) | > 100 µM (inactive) | > 100 µM (inactive) | 92.7 µM (inactive) | > 100 µM (inactive) | > 100 µM (inactive) | > 100 µM (inactive) | > 100 µM (inactive) | > 100 µM (inactive) | > 100 µM (inactive) | > 100 µM (inactive) | > 100 µM (inactive) |  | > 100 µM (inactive) | > 100 µM (inactive) | > 100 µM (inactive) |
| COc1ccc2c(c1OC)C(Br)CCC(Br)(Br)C2=O (configuration not stated) | 4.23 µM (inactive) | 13.6 µM (inactive) | 7.87 µM (inactive) | 4.9 µM (inactive) | 3.52 µM (inactive) | 2.79 µM (inactive) | 5.25 µM (inactive) | 6.41 µM (inactive) | 3.99 µM (inactive) | 10.7 µM (inactive) | 16 µM (inactive) | 1.58 µM (inactive) | 15.8 µM (inactive) | 11.9 µM (inactive) | 4.83 µM (inactive) |  | 2.25 µM (inactive) | 16.7 µM (inactive) | 3.91 µM (inactive) |
| CC1=C2C(=O)O[C@@H](c3ccoc3)[C@]2(C)CCC1=O [FRAXINELLONONE] | > 100 µM (inactive) | > 100 µM (inactive) | > 100 µM (inactive) | > 100 µM (inactive) | > 100 µM (inactive) | > 100 µM (inactive) | > 100 µM (inactive) | > 100 µM (inactive) | > 100 µM (inactive) |  | > 100 µM (inactive) |  | > 100 µM (inactive) | > 100 µM (inactive) | > 100 µM (inactive) | > 100 µM (inactive) | > 100 µM (inactive) | > 100 µM (inactive) |  |
